Experimental data taken from patent US11674959B2, “Methods for identifying and preparing pharmaceutical agents for activating Tie1 and/or Tie2 receptors” (The Johns Hopkins University, priority 2017, dated 2023).

Columns and labels:
VE-cadherin = test: Western blot of VE-Cadherin from MEC monolayers; assay type: cell-based, human; details: three hours of AXT107 and Ang2 treatment
Experimental: The jaggedness of these junctions is related to the structure of actin within the cell.
For Ang1/2 signaling investigations, cell culture dishes (10 cm diameter) were coated with 5 μg/ml fibronectin (FN1; Sigma-Aldrich, St. Louis, Mo.) for two hours at 37° C. The FN1 solution was then removed by aspiration and 5×10^6 microvascular endothelial cells (MECs; Lonza, Walkersville, Md.) were plated in EGM-2MV media (Lonza) and cultured for forty-eight hours at 37° C. The cells were then serum starved for sixteen hours in serum-free EGM-2 base media (Lonza). […] The cells were then transferred to ice, washed twice with ice cold Dulbecco's phosphate-buffered saline (dPBS) containing Ca^2+ and Mg^2+, and collected by scraping in 500 μl of 1× Blue Loading Buffer (Cell Signaling, Danvers, Mass.). […] Specific proteins were identified by Western blot, using the following primary antibodies: Cell Signaling—phospho-Tie2 (Y992) (Cat #: 4221), Tie2 (Cat #: 7403), phospho-Stat3 (Y705) (Cat #: 4113), Stat3 (Cat #: 4904), phospho-Akt (S473) (Cat #: 4058), Akt (Cat #: 9272), phospho-p44/42 MAPK (T202/Y204) (Cat #: 4370), p44/42 MAPK (Cat #: 4695); BD Transduction Laboratories—β1 integrin (Cat #: 610467); Millipore—α5 integrin (Cat #: AB1928) and detected with HRP-conjugated goat anti-rabbit and sheep anti-mouse secondary antibodies (GE healthcare).

[1] = Self-assembly of peptide in media; assay type: physicochemical; details: added to media
Tie2 = Tie2 immunoprecipitation from fractionated MEC lysates, blotted for phospho-Tie2; assay type: cell-based, human; details: Ang2 with or without AXT107; soluble vs insoluble fractions
Experimental: Next, experiments were performed to determine whether or not relocation of Tie2 to the insoluble fraction was important for Tie2's activation by Ang2. Tie2 was immunoprecipitated from fractionated MEC lysates exposed to Ang2 with or without AXT107 and then immunoblotted for phospho-Tie2.
The isolation of Triton X-100 soluble and insoluble fractions was performed using modifications to previously-described procedures (see, e.g., Lampugnani et al., J Cell Biol. 1995; 129(1):203-217). FN1-coated six-well plates were seeded with 2.5×10^6 cells and cultured for forty-eight hours, as described above. The cultures were then serum starved for ninety minutes in EBM-2 media, treated with 100 μM AXT107 or DMSO vehicle, and fifteen minutes with 1 mM sodium vanadate. The cells were then stimulated with either 100 ng/ml VEGFA, 400 ng/ml Ang2, or PBS for fifteen minutes. The plates were then transferred to ice and washed twice with cold dPBS containing Ca^2+ and Mg^2+ and twice with EBM-2 media. The media was then removed and the cells incubated for thirty minutes on ice, at 4° C. in 200 μl of Triton X-100 extraction buffer (10 mM Tris-HCl, pH 7.5; 150 mM NaCl; 2 mM CaCl2; 1% NP-40; 1% […]; and a protease inhibitor cocktail (Cell Signaling, Cat #: 5871)) with occasional agitation. […] Samples were analyzed by western blot as described above. […]

integrin αvβ3 = integrin αvβ3 (Homo sapiens, UniProt P05106+P06756); details: Lee et al. 2014; Lima et al. 2017; cited from earlier work
Sequence of integrin αvβ3 (P06756 31-1048): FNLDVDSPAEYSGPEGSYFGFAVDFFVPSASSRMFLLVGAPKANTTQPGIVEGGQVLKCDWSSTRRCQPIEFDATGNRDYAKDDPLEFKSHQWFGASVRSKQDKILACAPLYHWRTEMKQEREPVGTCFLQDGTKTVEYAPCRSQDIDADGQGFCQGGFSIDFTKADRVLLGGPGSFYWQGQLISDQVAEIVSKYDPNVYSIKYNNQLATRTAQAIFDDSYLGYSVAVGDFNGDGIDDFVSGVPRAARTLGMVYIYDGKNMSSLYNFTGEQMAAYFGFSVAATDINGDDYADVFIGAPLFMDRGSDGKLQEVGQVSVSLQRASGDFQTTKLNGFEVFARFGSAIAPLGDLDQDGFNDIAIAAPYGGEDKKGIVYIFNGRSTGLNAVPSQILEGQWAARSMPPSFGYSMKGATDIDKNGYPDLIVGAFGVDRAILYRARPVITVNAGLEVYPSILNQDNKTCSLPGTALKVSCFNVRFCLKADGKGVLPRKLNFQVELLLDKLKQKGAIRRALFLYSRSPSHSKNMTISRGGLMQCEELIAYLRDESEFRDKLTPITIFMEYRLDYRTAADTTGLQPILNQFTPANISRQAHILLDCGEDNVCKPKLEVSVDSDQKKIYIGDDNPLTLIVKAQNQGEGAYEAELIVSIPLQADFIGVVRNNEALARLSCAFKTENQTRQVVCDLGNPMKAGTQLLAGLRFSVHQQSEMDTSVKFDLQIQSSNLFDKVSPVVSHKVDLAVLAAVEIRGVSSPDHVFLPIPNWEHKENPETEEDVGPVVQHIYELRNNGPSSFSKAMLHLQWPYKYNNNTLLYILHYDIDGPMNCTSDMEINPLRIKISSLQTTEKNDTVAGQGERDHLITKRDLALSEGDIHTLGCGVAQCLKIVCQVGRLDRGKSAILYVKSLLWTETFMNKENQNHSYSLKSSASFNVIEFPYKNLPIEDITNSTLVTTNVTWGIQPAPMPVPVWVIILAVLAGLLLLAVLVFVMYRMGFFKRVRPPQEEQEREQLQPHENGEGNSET
Sequence of integrin αvβ3 (P05106 27-788): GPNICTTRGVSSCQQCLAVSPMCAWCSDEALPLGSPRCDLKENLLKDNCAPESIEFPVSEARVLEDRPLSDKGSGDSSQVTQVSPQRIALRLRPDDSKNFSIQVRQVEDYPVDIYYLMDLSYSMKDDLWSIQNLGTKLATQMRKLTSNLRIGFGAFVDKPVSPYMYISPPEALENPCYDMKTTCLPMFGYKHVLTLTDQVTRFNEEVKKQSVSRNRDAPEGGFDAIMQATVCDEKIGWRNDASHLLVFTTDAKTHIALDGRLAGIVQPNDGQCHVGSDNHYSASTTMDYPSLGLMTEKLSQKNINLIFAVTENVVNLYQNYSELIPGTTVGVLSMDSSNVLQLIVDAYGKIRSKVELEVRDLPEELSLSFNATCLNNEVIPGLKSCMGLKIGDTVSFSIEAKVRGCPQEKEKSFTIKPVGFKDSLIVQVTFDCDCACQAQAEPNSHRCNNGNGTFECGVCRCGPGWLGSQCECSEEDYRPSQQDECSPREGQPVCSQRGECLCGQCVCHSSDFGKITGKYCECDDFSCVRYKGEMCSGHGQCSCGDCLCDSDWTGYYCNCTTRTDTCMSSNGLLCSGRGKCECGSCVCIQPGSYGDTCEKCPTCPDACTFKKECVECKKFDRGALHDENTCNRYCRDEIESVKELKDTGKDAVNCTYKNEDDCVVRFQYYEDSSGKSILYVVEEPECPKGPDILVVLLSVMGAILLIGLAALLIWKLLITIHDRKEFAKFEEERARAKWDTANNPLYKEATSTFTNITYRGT

Q: Which “Total level of VE-cadherin” value (VE-cadherin) does the source give for LRRFSTAPFAFIDINDVINF [AXT107] here?
A: remained unchanged

Q: And the Self-assembly in media [1]?
A: self-assemble into peptide complexes when added to media

Q: What about the “Tie2 phosphorylation by fraction” value (Tie2) of the same sequence?
A: phosphorylation was observed only in the insoluble fractions of peptide-treated samples

Q: What about the “Binding to integrin αvβ3” value (integrin αvβ3) of the same sequence?
A: binds tightly
